According to patent publication US9133122B2, “Amide compounds, compositions and uses thereof” (EVOTEC AG, priority 2008, dated 2015):

Columns and labels:
[1] = molecular target: T1, hP2X2/3H (Homo sapiens, UniProt P56373+Q9UBL9); assay: Calcium uptake assay (Ca influx), P2X antagonist assay, P2X2/3 heteromer; type: cell-based; settings: inhibition of agonist-induced calcium influx
T1 construct: expressed in transfected cells
T1 sequence (P56373 1-397): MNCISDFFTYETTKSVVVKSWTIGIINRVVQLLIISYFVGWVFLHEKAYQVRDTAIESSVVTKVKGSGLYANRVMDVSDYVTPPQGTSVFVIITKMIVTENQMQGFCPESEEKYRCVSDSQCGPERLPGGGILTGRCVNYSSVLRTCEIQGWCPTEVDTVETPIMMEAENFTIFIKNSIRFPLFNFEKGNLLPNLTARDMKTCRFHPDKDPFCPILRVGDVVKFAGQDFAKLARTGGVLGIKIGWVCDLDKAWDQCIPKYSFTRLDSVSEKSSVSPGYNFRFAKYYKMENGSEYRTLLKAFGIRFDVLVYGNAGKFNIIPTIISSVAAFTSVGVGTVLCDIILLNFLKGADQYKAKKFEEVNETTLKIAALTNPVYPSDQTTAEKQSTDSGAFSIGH
T1 sequence (Q9UBL9 1-471): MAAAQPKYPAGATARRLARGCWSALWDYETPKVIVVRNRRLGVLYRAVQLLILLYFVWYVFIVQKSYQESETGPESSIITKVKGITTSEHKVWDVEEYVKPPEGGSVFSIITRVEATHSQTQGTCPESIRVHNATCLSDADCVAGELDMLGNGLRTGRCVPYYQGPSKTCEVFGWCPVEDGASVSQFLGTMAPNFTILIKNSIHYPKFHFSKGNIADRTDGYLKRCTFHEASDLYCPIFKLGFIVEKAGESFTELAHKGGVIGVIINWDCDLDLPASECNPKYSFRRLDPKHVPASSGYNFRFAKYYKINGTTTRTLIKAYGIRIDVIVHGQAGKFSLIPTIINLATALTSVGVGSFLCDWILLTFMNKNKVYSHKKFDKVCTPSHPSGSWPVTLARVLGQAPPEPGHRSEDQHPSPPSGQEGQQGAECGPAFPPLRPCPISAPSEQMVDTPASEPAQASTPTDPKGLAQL
Excerpt: (§1) Human P2X3 (Accession no. NM_002559), P2X2 (Accession no. NM_170682) and Rat P2X3 (Accession no. NM_031075) and P2X2 (Accession no. NM_053656) are cloned into a mammalian expression vector (e.g., pcDNAS/TO or pcDNA3 Invitrogen). The human P2X2/3 chimera clone is created as described by Neelands et al, and then cloned into an expression vector as above. Receptors are expressed in cells (e.g., HEK293 or 1321N1 (obtained from the ECACC)) via transient transfection using standard lipid mediated transfection, or by creation of stable transfectants for each receptor. For expression of the P2X2/3 heteromeric receptor, the P2X3 expression vector is stably transfected into a cell line already stably expressing P2X2. P2X2/3 heteromer function is isolated using pharmacological methods. Cell lines are maintained in DMEM+5% Glutamax, the appropriate level of selective antibiotic, and 10% heat inactivated FBS.
(§2) Functional activity of compounds at the P2X receptor is determined by measuring their ability to inhibit agonist-induced calcium influx. Compounds are tested for antagonist activity against the P2X2/3 chimera, the P2X3 homomer, or the P2X2/3 heteromer. At the start of each screening day, the agonist EC50 is determined. Compound % inhibition or IC50s are subsequently determined using a predetermined agonist concentration (EC50-90 depending on cell line) as a stimulus. The agonists used are αβMeATP, ATP, or other ATP analogs. Compounds may be tested at concentrations ranging from 1 pM to 10 μM.
(§3) To test for antagonist activity, cells expressing the appropriate receptor are seeded onto 96 or 384 well plates 18-24 hours prior to assay. On the day of the assay, cells are loaded with calcium-sensitive fluorescent dye (e.g., Fluo-4 no wash reagent-Invitrogen cat#F36206, or the BD™ PBX Calcium Assay Kit-BD cat #640175) in Hank's Buffered Salt Solution (HBSS) with up to 10 mM supplemental CaCl2. Plates are incubated at 37° C. and then equilibrated at room temperature. Antagonism of agonist-induced calcium influx is measured using a fluorescent imaging plate reader (e.g. FLIPR^TETRA, Molecular Devices, Sunnyvale, Calif.). The assay comprises two stages: a pre-treatment phase followed by a treatment phase. Compounds may be tested as follows: For the pre-treatment phase, 50 μL of 3× concentration of test compound in HBSS is added to cells containing 100 μL of dye loading media to achieve a final concentration of 1× test compound. For the treatment phase, at a set interval after pre-treatment (1-30 minutes), 50 μL of 1× test compound plus 4× agonist solution is added, resulting in a final concentration of 1× compound and 1× agonist. Fluorescence is measured at 0.1-3 second intervals—with an excitation wavelength of 494 nm and an emission wavelength of 515 nm. Responses are measured as (peak fluorescence after agonist addition) minus (baseline fluorescence prior to treatment). Percent inhibition is calculated as follows:
(§4) [formula] IC50 values are determined by analyzing dose response data in a 4 parameter logistic fit using GraphPad Prizm.
(§5) The following compounds have been or can be prepared according to the synthetic methods described herein. A calcium uptake assay was performed as described above and the activity of each compound is expressed as follows: […]

[2] = molecular target: T2, hP2X3 (Homo sapiens, UniProt P56373); assay: Calcium uptake assay (Ca influx), P2X antagonist assay, P2X3 homomer; type: cell-based; settings: inhibition of agonist-induced calcium influx
T2 construct: expressed in transfected cells
T2 sequence (P56373 1-397): T1 sequence (P56373 1-397)
Excerpt: as §1, §2, §3, §4, §5

SMILES	IC50 [1] [nM]	IC50 [2] [nM]
Cc1ccc(-c2cc(C(=O)NCc3ccc(C)nc3)cc(-c3ccc(C)cc3C#N)c2)nc1 [Compound 35, 2′-Cyano-4′-methyl-5-(5-methyl-pyridin-2-yl)-biphenyl-3-carboxylic acid (6-methyl-pyridin-3-ylmethyl)-amide]	35.6	50.8
Cc1ccc(-c2cc(C(=O)NCc3ccc(C)nc3)cc(N3CCCCC3=O)c2)cc1 [Compound 37, 4′-Methyl-N-((6-methylpyridin-3-yl)methyl)-5-(2-oxopiperidin-1-yl)biphenyl-3-carboxamide]	122	48.6
Cc1ccc(-c2cc(C(=O)NCc3cnc(C)nc3)cc(N3CCCCC3=O)c2)cc1 [Compound 38]	226	80.7
Cc1ccc(-c2cc(C(=O)N[C@H](C)c3cnc(C)nc3)cc(N3CCCCC3=O)c2)cc1 [Compound 39, (R)-4′-Methyl-N-(1-(2-methylpyrimidin-5-yl)ethyl)-5-(2-oxopiperidin-1-yl)biphenyl-3-carboxamide]	82	38.8
Cc1ccc(-c2cc(C(=O)N[C@H](C)c3ccc(C)nc3)cc(N3CCCCC3=O)c2)cc1 [Compound 40, (R)-4′-Methyl-N-(1-(6-methylpyridin-3-yl)ethyl)-5-(2-oxopiperidin-1-yl)biphenyl-3-carboxamide]	52.7	26.3
Cc1ccc(-c2cc(C(=O)NCc3ccc(C)nc3)cc(-c3cnc(N)cn3)c2)nc1 [Compound 41, 3-(5-Amino-pyrazin-2-yl)-5-(5-methyl-pyridin-2-yl)-N-(6-methyl-pyridin-3-ylmethyl)-benzamide]	169	23.8
Cc1ccc(-c2cc(C(=O)N[C@H](C)c3cnc(C)nc3)cc(N3CCCC3=O)c2)cc1 [Compound 48, 4′-Methyl-5-(2-oxo-pyrrolidin-1-yl)-biphenyl-3-carboxylic acid [(R)-1-(2-methyl-pyrimidin-5-yl)-ethyl]-amide]	33.2	16.5
Cc1ccc(-c2cc(C(=O)NCc3ccc(C)nc3)cc(N3CCCC3=O)c2)cc1 [Compound 49, 4′-Methyl-5-(2-oxo-pyrrolidin-1-yl)-biphenyl-3-carboxylic acid (6-methyl-pyridin-3-ylmethyl)-amide]	205	34.1
Cc1ccc(-c2cc(C(=O)NCc3cnc(C)nc3)cc(N3CCCC3=O)c2)cc1 [Compound 50, 4′-Methyl-5-(2-oxo-pyrrolidin-1-yl)-biphenyl-3-carboxylic acid (2-methyl-pyrimidin-5-ylmethyl)-amide]	428	25.9
Cc1ccc(-c2cc(C(=O)N[C@H](C)c3ccc(C)nc3)cc(N3CCCC3=O)c2)cc1 [Compound 51, 4′-Methyl-5-(2-oxo-pyrrolidin-1-yl)-biphenyl-3-carboxylic acid [(R)-1-(6-methyl-pyridin-3-yl)-ethyl]-amide]	37	23.8

The remaining lines, values ahead:

IC50 [1] [nM]	IC50 [2] [nM]	SMILES
18.4	21.1	Cc1ccc(-c2cc(C(=O)N[C@H](C)c3cnc(C)nc3)cc(-c3ccccc3CO)c2)nc1 [Compound 34, 2′-Hydroxymethyl-5-(5-methyl-pyridin-2-yl)-biphenyl-3-carboxylic acid [(R)-1-(2-methyl-pyrimidin-5-yl)-ethyl]-amide]
32.8	65.4	Cc1ccc(-c2cc(C(=O)N[C@H](C)c3cnc(C)nc3)cc(-c3cccc(F)c3F)c2)nc1 [Compound 36, 2′,3′-Difluoro-5-(5-methyl-pyridin-2-yl)-biphenyl-3-carboxylic acid [(R)-1-(2-methyl-pyrimidin-5-yl)-ethyl]-amide]
50.5	15.1	Cc1ccc(-c2cc(C(=O)NCc3ccc(C)nc3)cc(-c3cccnc3C#N)c2)nc1 [Compound 42, 3-(2-Cyano-pyridin-3-yl)-5-(5-methyl-pyridin-2-yl)-N-(6-methyl-pyridin-3-ylmethyl)-benzamide]
126	24.1	Cc1ncc([C@@H](C)NC(=O)c2cc(-c3ccccn3)cc(-c3ccccc3C#N)c2)cn1 [Compound 43, 2′-Cyano-5-pyridin-2-yl-biphenyl-3-carboxylic acid [(R)-1-(2-methyl-pyrimidin-5-yl)-ethyl]-amide]
293	91.6	Cc1ncc([C@@H](C)NC(=O)c2cc(-c3ccccn3)cc(-c3ccccc3CO)c2)cn1 [Compound 44, 2′-Hydroxymethyl-5-pyridin-2-yl-biphenyl-3-carboxylic acid [(R)-1-(2-methyl-pyrimidin-5-yl)-ethyl]-amide]
13.4	14.6	COCc1ccccc1-c1cc(C(=O)N[C@H](C)c2cnc(C)nc2)cc(-c2ccc(C)cn2)c1 [Compound 45, 2′-Methoxymethyl-5-(5-methyl-pyridin-2-yl)-biphenyl-3-carboxylic acid [(R)-1-(2-methyl-pyrimidin-5-yl)-ethyl]-amide]
8.8	7.3	Cc1ccc(-c2cc(C(=O)NCc3ccc(C)nc3)cc(-c3cnccc3C#N)c2)nc1 [Compound 46, 3-(4-Cyano-pyridin-3-yl)-5-(5-methyl-pyridin-2-yl)-N-(6-methyl-pyridin-3-ylmethyl)-benzamide]
36.8	29.1	Cc1ccc(-c2cc(C(=O)N[C@H](C)c3cnc(C)nc3)cc(-c3ccccc3C(N)=O)c2)nc1 [Compound 47, 5′-(5-Methyl-pyridin-2-yl)-biphenyl-2,3′-dicarboxylic acid 2-amide 3′-{[(R)-1-(2-methyl-pyrimidin-5-yl)-ethyl]-amide}]
37.5	26.2	Cc1ccc(-c2cc(C(=O)N[C@H](C)c3cnc(C)nc3)cc(-c3cccc(F)c3C#N)c2)nc1 [Compound 52, 2′-Cyano-3′-fluoro-5-(5-methyl-pyridin-2-yl)-biphenyl-3-carboxylic acid [(R)-1-(2-methyl-pyrimidin-5-yl)-ethyl]-amide]
295	62.6	COCc1ccccc1-c1cc(C(=O)N[C@H](C)c2cnc(C)nc2)cc(-c2ccccn2)c1 [Compound 53, 2′-Methoxymethyl-5-pyridin-2-yl-biphenyl-3-carboxylic acid [(R)-1-(2-methyl-pyrimidin-5-yl)-ethyl]-amide]
509	55.2	Cc1ccc(-c2cc(C(=O)N[C@H](C)c3cnc(C)nc3)cc(-c3ccccc3C(=O)N(C)C)c2)nc1 [Compound 54, 5′-(5-Methyl-pyridin-2-yl)-biphenyl-2,3′-dicarboxylic acid 2-dimethylamide 3′-{[(R)-1-(2-methyl-pyrimidin-5-yl)-ethyl]-amide}]
